In US20040101534A1 (priority 2002, published 2004):
Entries after “also recorded” stand apart in the source; their conditions may differ.

Assays:
[1] = tested on: JA2.1 T cells infected with vaccinia virus expressing pp65; parameters: species or system HLA A2.1/K^b transgenic mice; settings: mouse, in vivo, sc
[2] = tested on: T2 cells loaded with pp65495-503; settings: mouse, in vivo; cited from earlier work
human PBL = settings: cited from earlier work

VSTIVPYIGPALNIAAANLVPMVATV [Tet639V]
recognition of endogenously processed pp65 [1]: evident; also recorded: more prominent

NLVPMVATV [pp65495-503]
CTL response directed at the pp65495-503 CTL epitope [2]: robust CTL response | CTL precursor memory response (human PBL): stimulates a CTL precursor (CTLp) memory response
